For assay [1], the target named is T1, PON1 (Homo sapiens, UniProt P27169). The settings on record: inhibitor 200 μM.
Experimental: Arylesterase activity: Arylesterase activity was determined using 5 μl serum or 10 μl of the HDL or LPDS fraction in a total volume of 1 ml of 50 mM Tris-HCL, pH 8.0 containing 1 mM CaCl2 and 1 mM phenyl acetate. The increase in OD at 270 nm was monitored for 1 minute. One unit is defined as 1 μmol of phenyl actetate hydrolyzed per ml per minute (26).
The subject of assay [2] is J774 A.1 macrophages. In words: Macrophage cholesterol efflux mediated by HDL or LPDS. It is filed as cell-based, murine. The following applies: Mus musculus.
Experimental: HDL and LPDS were isolated from 3 healthy subjects by ultracentrifugation. […] The cells were also incubated with HDL or LPDS fractions that were preincubated for 1 hour at 37° C. with the PON1 inhibitor 2-hydroxyquinoline (200 μM), or with HDL and LPDS that were enriched with evolved PON1 (50 paraoxonase U/ml). HDL or LPDS-mediated cholesterol efflux was then determined. Results are given as mean±S.D of three different experiments *p<0.01 vs. HDL, #p<0.01 vs. LPDS.
Cells: J774 A.1 murine macrophage cells were purchased from the American Tissue Culture Collection (ATCC, Rockville, Md.). The cells were grown in Dulbecco's modified Eagle's medium (DMEM) containing 5% FCS and 100 U penicillin/ml, 100 μg streptomycin/ml, and 2 mM glutamine.
Macrophage Cholesterol efflux determination: J774 A.1 macrophages were incubated with [^3H]-labeled cholesterol (2 μCi/ml) for 1 hour at 37° C., followed by cell wash in ice-cold PBS (×3) and a further incubation in the absence or presence of HDL or LPDS (5 paraoxonase units/ml)) for 3 hours at 37° C. […] Cellular and medium [^3H]-labeled cholesterol was quantitated and the percentage of cholesterol efflux was calculated [the ratio of [^3H]-label in the medium*100/([^3H]-label in the medium+[^3H]-label in the cells), 18]. […]
Assay [3] deals with T1, PON1. The following applies: inhibitor or antibody (diluted 1:10, v:v) added to the fractions; data not shown.

Like-named read-outs stand apart in the source and are kept apart here.

T1 sequence (P27169 whole entry): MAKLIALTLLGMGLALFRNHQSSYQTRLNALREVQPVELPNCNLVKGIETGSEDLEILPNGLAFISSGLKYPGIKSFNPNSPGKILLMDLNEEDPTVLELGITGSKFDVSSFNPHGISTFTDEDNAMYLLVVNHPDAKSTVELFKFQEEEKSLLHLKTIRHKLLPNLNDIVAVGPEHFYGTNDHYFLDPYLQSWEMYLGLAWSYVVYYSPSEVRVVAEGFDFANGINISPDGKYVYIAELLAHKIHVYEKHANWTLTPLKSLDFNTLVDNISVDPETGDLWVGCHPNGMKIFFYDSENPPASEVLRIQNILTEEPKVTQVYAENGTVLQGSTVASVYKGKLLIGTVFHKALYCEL

Turning to `Oc1ccc2ccccc2n1` [2-hydroxyquinoline], in assay [1] (HDL fraction), the “reduction in HDL arylesterase activity” value was 60%. For the same compound, in assay [1] (HDL fraction, without inhibitor 22.4±1.5), the “HDL arylesterase activity with inhibitor” value is 9.0±1.0 units/ml. Moreover, the “reduction in LPDS arylesterase activity” value in assay [1] (LPDS fraction) turned out to be 76%. The “LPDS arylesterase activity with inhibitor” value in assay [1] (LPDS fraction, without inhibitor 2.9±0.5) was 0.7±0.7 units/ml. Moreover, the inhibition at 200 µM in assay [2] (J774.A1, read-out: reduction of cholesterol efflux by HDL preincubated with the inhibitor) came out at 25%; in assay [2] (J774.A1, inhibitor 200 μM, vs non-treated LPDS, read-out: reduction of cholesterol efflux by LPDS preincubated with the inhibitor) it was 10%. For the same compound, the “paraoxonase activities in HDL and LPDS” value in assay [3] was “significantly reduced”.

The values are drawn from patent publication US20070224657A1, “Distribution of PON1 as a marker of lipid related disorders” (priority 2006, published 2007).
